The source made the active and inactive calls.

Holding throughout (type): functional
Experiment [1] concerns the target T1, Small ubiquitin-related modifier 1 (Homo sapiens, UniProt P63165). The experiment in a line: SUMO1 protein interaction blockers, potency – biochemical, fluorescence polarization, uHTS hits, dose response (AID 624382). Conditions: read-out: IC50_Mean. On the technique in general: Fluorescence polarisation rises when a labelled molecule tumbles more slowly, as on binding a larger partner.

The target in experiment [2] is T2, Bcl-2-related protein A1 (Mus musculus, UniProt Q07440).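 Also: confirmatory dose–response counterscreen on Bfl-1, used to check hits from a UBC13 polyubiquitin inhibitor campaign.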
T2 sequence (Q07440 whole entry): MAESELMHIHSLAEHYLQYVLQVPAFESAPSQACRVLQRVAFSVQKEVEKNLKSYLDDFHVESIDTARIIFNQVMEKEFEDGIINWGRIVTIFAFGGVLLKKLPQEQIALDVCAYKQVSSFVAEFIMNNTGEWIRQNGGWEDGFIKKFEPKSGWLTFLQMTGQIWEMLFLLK

The subject of experiment [3] is INS1. Description: INS-1E survival protection against cytokine death – cell-based, luminescence, retest, dose response (AID 449756).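 Also: cell death triggered by IL-1 beta plus TNF-alpha plus IFN-gamma mixture; protective hits raise ATP signal compared with cytokine alone wells.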 Conditions: Rattus norvegicus.
The target of experiment [4] is T3, Ubiquitin-conjugating enzyme E2 N (Homo sapiens, UniProt P61088).
T3 sequence (P61088 whole entry): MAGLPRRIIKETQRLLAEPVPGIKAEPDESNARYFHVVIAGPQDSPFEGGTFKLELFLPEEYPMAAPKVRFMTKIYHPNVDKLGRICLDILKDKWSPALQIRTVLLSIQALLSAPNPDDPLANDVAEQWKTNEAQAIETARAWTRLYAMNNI

The target of experiment [5] is T4, Rac GTPase-activating protein 1 (Homo sapiens, UniProt Q9H0H5).
T4 sequence (Q9H0H5 whole entry): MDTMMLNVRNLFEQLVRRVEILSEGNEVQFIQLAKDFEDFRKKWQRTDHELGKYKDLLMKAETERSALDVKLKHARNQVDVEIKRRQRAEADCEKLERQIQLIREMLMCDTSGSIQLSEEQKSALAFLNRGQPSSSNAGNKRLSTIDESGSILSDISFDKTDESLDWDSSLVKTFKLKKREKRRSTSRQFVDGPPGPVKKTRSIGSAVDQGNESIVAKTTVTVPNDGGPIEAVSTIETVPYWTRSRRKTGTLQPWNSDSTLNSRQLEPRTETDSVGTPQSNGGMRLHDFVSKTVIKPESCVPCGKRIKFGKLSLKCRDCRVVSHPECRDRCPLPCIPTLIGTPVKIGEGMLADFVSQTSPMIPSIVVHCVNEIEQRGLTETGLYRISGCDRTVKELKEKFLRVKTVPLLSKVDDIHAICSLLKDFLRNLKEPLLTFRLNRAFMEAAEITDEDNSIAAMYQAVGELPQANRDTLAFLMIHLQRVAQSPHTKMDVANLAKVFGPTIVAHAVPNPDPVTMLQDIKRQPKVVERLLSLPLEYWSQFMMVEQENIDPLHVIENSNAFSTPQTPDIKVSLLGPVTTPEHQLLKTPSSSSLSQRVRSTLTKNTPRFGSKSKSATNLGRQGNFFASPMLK
Description: blockers of MgcRacGAP-driven Rac1 GTP hydrolysis – biochemical, ADP Hunter fluorescence, primary and confirmatory, confirmation (AID 624330).

The target in experiment [6] is T5, Apoptotic protease-activating factor 1 (Homo sapiens, UniProt O14727).
T5 sequence (O14727 whole entry): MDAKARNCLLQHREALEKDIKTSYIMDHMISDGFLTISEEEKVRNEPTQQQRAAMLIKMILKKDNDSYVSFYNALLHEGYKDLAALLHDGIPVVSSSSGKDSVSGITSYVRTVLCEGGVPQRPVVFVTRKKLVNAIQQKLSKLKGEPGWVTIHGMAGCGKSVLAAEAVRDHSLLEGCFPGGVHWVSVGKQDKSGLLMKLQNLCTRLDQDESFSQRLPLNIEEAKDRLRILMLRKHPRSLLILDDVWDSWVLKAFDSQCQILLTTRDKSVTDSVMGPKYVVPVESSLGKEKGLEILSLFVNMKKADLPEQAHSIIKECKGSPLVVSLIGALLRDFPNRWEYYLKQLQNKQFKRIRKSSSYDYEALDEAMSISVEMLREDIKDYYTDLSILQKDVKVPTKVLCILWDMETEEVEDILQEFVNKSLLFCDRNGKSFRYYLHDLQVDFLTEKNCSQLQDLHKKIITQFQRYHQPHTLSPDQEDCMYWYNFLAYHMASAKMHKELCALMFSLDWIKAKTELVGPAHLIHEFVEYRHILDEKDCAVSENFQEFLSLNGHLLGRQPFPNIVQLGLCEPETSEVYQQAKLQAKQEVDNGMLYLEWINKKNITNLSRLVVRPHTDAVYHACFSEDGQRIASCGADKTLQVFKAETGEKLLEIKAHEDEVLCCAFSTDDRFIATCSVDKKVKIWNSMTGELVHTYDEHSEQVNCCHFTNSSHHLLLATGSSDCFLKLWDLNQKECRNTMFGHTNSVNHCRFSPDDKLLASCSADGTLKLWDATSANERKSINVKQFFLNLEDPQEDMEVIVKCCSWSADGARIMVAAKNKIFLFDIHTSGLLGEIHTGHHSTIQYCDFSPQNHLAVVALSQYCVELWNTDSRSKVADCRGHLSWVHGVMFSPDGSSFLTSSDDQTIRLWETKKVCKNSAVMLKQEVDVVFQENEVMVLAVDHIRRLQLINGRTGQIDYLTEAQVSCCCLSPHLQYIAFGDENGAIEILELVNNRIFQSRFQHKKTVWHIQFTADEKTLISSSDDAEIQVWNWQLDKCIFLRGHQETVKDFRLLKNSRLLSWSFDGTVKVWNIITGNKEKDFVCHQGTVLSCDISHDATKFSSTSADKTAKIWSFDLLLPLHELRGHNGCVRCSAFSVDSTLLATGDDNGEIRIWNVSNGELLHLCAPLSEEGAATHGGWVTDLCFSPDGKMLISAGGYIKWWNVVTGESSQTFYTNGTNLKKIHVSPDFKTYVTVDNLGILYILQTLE

Experiment [7] deals with T1, Small ubiquitin-related modifier 1. Description: SUMO1 protein-protein binding blockers, potency – biochemical, FRET, dose response (AID 624383). As to conditions: read-out: IC50_Mean.
For experiment [8], the target named is 26S proteasome non-ATPase regulatory subunit 14 (Homo sapiens, UniProt O00487). Description: inhibition of proteasome subunit RPN11 – biochemical, fluorescence polarization, uHTS hits, confirmation (AID 602368).
Experiment [9] concerns the target T5, Apoptotic protease-activating factor 1. The experiment in a line: SAR analysis of small molecule inhibitors of Apaf-1 in a Fluorescent assay. Conditions: read-out: IC50_Mean.
For experiment [10], the target named is 72 kDa type IV collagenase (Homo sapiens, UniProt P08253). The experiment in a line: Dose Response validation of uHTS RPN11 inhibitor hits using a MMP-2 Fluorescence assay.
Experiment [11] concerns the target T3, Ubiquitin-conjugating enzyme E2 N. This is another data set of the same source.
Experiment [12] addresses Prothrombin (Bos taurus, UniProt P00735). Description: thrombin protease inhibitors – biochemical, fluorescence polarization, uHTS hits, dose response (AID 602369).
Experiment [13] can be described thus: microbe, parasite or virus in culture. As to conditions: Mycobacterium tuberculosis.
For experiment [14], the target named is Lethal factor (Bacillus anthracis, UniProt P15917). The experiment in a line: High-throughput multiplex microsphere dose response for inhibitors of toxin protease, specifically Lethal Factor protease, compounds from Cherry Pick 02. Conditions: read-out: EC50_MICROM.
Experiment [15] has as its target Botulinum neurotoxin type F (Clostridium botulinum, UniProt P30996). Description: High-throughput multiplex microsphere dose response for inhibitors of toxin protease, specifically Botulinum neurotoxin light chain F protease, compounds from Cherry Pick 02. Conditions: read-out: EC50_MICROM.
Experiment [16] deals with T6, Botulinum neurotoxin type A (Clostridium botulinum (strain Hall / ATCC 3502 / NCTC 13319 / Type A), UniProt P0DPI1). The experiment in a line: High-throughput multiplex microsphere dose response for inhibitors of toxin protease, specifically Botulinum neurotoxin light chain A protease, compounds from Cherry Pick 02. As to conditions: read-out: EC50_MICROM.
T6 sequence (P0DPI1 2-448 limits assumed): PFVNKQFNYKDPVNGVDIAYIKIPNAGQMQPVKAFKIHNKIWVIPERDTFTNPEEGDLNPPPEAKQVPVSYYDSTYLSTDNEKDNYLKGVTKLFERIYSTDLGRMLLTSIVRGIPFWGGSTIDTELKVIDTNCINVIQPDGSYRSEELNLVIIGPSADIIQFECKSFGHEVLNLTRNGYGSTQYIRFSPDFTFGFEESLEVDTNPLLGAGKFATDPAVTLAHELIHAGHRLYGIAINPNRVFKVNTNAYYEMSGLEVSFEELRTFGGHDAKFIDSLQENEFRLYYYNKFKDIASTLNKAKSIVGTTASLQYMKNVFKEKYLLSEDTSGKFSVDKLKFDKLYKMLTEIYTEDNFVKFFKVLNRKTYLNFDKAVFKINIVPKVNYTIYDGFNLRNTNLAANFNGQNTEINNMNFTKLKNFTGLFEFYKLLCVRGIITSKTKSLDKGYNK
Experiment [17] addresses T6, Botulinum neurotoxin type A. Description: High-throughput multiplex microsphere dose response for inhibitors of toxin protease, specifically Botulinum neurotoxin light chain A protease, compounds from Cherry Pick 01. As to conditions: read-out: EC50_MICROM.
Experiment [18] concerns the target Proto-oncogene tyrosine-protein kinase receptor Ret (Homo sapiens, UniProt P07949).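 Also: measured within a kinome-wide profiling panel, RET as the panel member.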
In experiment [19] the target is Dual specificity tyrosine-phosphorylation-regulated kinase 1B (Homo sapiens, UniProt Q9Y463). The experiment in a line: Navigating the Kinome. Panel member name: DYRK1B.
In experiment [20] the target is Hepatocyte growth factor receptor (Homo sapiens, UniProt P08581).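 Also: kinase panel profiling across the kinome, with MET as the panel member.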
Chain of Hepatocyte growth factor receptor (P08581 whole entry): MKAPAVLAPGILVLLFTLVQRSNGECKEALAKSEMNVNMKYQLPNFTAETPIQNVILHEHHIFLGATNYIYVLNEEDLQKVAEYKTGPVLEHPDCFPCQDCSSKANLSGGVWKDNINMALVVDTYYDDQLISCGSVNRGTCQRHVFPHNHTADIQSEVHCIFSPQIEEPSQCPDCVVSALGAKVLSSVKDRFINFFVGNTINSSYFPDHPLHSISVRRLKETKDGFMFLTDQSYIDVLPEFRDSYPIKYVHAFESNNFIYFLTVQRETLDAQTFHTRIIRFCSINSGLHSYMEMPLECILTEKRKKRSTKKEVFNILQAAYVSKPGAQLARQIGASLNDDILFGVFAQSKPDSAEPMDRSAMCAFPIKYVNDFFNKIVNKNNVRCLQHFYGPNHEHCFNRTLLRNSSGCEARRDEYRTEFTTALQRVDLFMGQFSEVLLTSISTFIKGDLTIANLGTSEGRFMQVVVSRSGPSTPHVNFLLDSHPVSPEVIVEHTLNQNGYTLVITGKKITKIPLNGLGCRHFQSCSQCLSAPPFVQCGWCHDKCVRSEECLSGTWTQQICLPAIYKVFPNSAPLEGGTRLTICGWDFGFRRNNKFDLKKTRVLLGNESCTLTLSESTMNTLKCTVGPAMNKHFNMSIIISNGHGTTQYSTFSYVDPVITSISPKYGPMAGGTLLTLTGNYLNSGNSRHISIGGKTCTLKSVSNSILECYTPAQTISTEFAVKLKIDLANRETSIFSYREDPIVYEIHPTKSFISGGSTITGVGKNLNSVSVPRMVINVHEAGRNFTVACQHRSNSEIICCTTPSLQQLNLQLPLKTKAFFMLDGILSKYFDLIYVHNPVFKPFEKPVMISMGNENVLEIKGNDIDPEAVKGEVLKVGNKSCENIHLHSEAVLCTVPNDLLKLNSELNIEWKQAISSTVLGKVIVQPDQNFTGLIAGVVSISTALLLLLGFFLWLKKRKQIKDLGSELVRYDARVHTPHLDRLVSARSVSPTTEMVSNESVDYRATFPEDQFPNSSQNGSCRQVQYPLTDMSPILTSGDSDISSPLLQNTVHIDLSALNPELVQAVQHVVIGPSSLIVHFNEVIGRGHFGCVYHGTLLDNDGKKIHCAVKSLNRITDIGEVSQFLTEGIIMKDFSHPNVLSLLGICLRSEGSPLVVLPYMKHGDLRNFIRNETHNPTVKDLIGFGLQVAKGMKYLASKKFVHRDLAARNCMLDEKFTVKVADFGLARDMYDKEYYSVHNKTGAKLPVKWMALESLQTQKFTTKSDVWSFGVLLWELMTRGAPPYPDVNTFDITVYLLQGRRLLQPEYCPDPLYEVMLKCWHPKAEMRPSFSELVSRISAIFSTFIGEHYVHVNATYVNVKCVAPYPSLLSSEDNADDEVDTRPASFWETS
Experiment [21] addresses Aurora kinase B (Homo sapiens, UniProt Q96GD4).
For experiment [22], the target named is Cyclin-dependent kinase 8 (Homo sapiens, UniProt P49336). The experiment in a line: Navigating the Kinome. Panel member name: CDK8.
Experiment [23] has as its target Cyclin-dependent kinase 5 (Homo sapiens, UniProt Q00535).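 Also: CDK5 measured as one member of a kinase profiling panel.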
The target in experiment [24] is G protein-coupled receptor kinase 5 (Homo sapiens, UniProt P34947). The experiment in a line: Navigating the Kinome. Panel member name: GPRK5.
Chain of G protein-coupled receptor kinase 5 (P34947 whole entry): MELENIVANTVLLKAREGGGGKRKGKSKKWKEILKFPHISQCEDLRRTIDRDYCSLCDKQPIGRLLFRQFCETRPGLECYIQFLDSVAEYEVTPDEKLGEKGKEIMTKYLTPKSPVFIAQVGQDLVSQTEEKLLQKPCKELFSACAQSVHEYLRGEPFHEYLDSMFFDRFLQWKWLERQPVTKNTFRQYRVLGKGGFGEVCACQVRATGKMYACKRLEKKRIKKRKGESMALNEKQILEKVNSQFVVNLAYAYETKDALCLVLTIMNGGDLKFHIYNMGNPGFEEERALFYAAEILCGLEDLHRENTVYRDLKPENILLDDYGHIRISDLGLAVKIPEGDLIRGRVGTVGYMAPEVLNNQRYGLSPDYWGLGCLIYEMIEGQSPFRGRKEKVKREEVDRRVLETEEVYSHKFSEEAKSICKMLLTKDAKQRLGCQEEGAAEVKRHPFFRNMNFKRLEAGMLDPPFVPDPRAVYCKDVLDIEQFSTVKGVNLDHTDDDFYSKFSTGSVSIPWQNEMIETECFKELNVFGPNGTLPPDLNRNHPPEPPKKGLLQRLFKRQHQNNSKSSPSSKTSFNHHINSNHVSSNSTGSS
For experiment [25], the target named is Calcium/calmodulin-dependent protein kinase type II subunit alpha (Homo sapiens, UniProt Q9UQM7). The experiment in a line: Navigating the Kinome. Panel member name: CAMK2A.
Chain of Calcium/calmodulin-dependent protein kinase type II subunit alpha (Q9UQM7 whole entry): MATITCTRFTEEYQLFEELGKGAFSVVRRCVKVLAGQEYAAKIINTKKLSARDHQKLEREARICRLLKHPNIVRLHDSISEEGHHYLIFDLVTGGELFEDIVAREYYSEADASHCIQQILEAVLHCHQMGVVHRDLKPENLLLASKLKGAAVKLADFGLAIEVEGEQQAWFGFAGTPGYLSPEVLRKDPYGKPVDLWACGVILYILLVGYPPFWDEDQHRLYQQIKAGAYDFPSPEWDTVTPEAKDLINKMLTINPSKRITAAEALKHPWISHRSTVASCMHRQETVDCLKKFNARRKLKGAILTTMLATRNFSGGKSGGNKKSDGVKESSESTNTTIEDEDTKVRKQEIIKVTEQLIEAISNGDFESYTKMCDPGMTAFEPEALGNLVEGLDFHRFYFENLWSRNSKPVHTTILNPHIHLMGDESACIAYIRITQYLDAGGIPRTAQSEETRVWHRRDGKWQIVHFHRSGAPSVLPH
The target of experiment [26] is Platelet-derived growth factor receptor beta (Homo sapiens, UniProt P09619).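 Also: value comes from a kinome panel, with PDGFRB tested as one panel member.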
Experiment [27] has as its target Leucine-rich repeat serine/threonine-protein kinase 2 (Homo sapiens, UniProt Q5S007).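 Also: value from a broad kinome-wide panel profiling study in which LRRK2 was one of the kinases tested.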
In experiment [28] the target is Cyclin-dependent kinase 7 (Homo sapiens, UniProt P50613).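 Also: value comes from a kinome-wide kinase profiling panel in which CDK7 is one member.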
Chain of Cyclin-dependent kinase 7 (P50613 whole entry): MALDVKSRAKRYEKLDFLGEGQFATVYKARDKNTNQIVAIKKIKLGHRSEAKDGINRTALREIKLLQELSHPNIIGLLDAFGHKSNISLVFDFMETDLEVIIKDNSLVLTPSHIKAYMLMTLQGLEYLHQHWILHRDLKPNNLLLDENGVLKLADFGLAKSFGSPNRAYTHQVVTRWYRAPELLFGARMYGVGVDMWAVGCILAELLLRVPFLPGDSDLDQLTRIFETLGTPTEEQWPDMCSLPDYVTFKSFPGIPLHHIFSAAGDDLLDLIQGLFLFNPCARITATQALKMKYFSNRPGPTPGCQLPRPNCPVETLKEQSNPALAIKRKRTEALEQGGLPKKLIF
The target in experiment [29] is Dual specificity protein kinase CLK4 (Homo sapiens, UniProt Q9HAZ1).
Experiment [30] has as its target Focal adhesion kinase 1 (Homo sapiens, UniProt Q05397).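 Also: measured as one member of a kinome panel.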
Experiment [31] has as its target Leukocyte tyrosine kinase receptor (Homo sapiens, UniProt P29376). The experiment in a line: Navigating the Kinome. Panel member name: LTK.
The target in experiment [32] is Casein kinase I isoform alpha (Homo sapiens, UniProt P48729).
The target in experiment [33] is cAMP-dependent protein kinase catalytic subunit alpha (Homo sapiens, UniProt P17612).
Experiment [34] has as its target Aurora kinase A (Homo sapiens, UniProt O14965).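 Also: value from the Navigating the Kinome kinase panel profiling, panel entry STK6.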
Experiment [35] deals with Inhibitor of nuclear factor kappa-B kinase subunit epsilon (Homo sapiens, UniProt Q14164). Description: Navigating the Kinome. Panel member name: IKBKE.
Experiment [36] addresses Serine/threonine-protein kinase Nek2 (Homo sapiens, UniProt P51955).
The target of experiment [37] is Protein kinase C theta type (Homo sapiens, UniProt Q04759). Description: Navigating the Kinome. Panel member name: PRKCQ.
Experiment [38] concerns the target LIM domain kinase 1 (Homo sapiens, UniProt P53667). The experiment in a line: Navigating the Kinome. Panel member name: LIMK1.
The target of experiment [39] is Macrophage colony-stimulating factor 1 receptor (Homo sapiens, UniProt P07333).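 Also: value comes from the Navigating the Kinome screening panel, CSF1R member.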
The target in experiment [40] is Serine/threonine-protein kinase Chk1 (Homo sapiens, UniProt O14757).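 Also: measured as one member of a kinome-wide kinase profiling panel.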
In experiment [41] the target is Death-associated protein kinase 3 (Homo sapiens, UniProt O43293).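 Also: measured as one member of a kinome-wide profiling panel.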
Experiment [42] has as its target Dual specificity tyrosine-phosphorylation-regulated kinase 1A (Homo sapiens, UniProt Q13627).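 Also: measured against DYRK1A as one member of a broad kinome profiling panel.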
Experiment [43] addresses Vascular endothelial growth factor receptor 2 (Homo sapiens, UniProt P35968).
The target in experiment [44] is Tyrosine-protein kinase ABL1 (Homo sapiens, UniProt P00519).
Experiment [45] addresses Serine/threonine-protein kinase D3 (Homo sapiens, UniProt O94806).
For experiment [46], the target named is Tyrosine-protein kinase receptor TYRO3 (Homo sapiens, UniProt Q06418).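 Also: TYRO3 value obtained as one member of a kinome-wide profiling panel.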
Experiment [47] deals with cAMP-dependent protein kinase catalytic subunit PRKX (Homo sapiens, UniProt P51817).
Chain of cAMP-dependent protein kinase catalytic subunit PRKX (P51817 whole entry): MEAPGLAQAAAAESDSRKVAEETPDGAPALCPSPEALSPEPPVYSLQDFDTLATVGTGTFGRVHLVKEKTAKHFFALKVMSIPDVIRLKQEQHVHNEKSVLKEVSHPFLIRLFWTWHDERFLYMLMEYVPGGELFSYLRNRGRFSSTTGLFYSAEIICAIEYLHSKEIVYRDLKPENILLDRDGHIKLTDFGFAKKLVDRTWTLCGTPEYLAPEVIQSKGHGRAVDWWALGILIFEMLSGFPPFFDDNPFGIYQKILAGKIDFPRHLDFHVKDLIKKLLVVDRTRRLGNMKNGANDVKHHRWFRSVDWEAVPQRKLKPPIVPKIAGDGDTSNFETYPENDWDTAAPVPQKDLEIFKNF
Experiment [48] addresses Mitogen-activated protein kinase kinase kinase kinase 2 (Homo sapiens, UniProt Q12851).

T1 sequence (P63165 whole entry): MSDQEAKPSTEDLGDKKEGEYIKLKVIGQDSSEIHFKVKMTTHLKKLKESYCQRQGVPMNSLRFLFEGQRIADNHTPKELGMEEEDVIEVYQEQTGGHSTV
Chain of Aurora kinase A (O14965 whole entry): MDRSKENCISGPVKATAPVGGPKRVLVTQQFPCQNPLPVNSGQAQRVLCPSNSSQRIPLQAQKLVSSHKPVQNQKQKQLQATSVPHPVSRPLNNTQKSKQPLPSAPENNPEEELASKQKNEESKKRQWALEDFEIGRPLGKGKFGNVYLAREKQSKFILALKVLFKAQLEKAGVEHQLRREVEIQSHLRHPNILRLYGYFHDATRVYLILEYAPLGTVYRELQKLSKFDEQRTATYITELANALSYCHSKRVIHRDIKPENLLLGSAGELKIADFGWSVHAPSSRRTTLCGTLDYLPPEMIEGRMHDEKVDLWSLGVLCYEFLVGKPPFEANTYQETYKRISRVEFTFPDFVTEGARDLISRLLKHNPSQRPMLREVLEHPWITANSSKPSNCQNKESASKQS
Chain of Leukocyte tyrosine kinase receptor (P29376 whole entry, canonical isoform): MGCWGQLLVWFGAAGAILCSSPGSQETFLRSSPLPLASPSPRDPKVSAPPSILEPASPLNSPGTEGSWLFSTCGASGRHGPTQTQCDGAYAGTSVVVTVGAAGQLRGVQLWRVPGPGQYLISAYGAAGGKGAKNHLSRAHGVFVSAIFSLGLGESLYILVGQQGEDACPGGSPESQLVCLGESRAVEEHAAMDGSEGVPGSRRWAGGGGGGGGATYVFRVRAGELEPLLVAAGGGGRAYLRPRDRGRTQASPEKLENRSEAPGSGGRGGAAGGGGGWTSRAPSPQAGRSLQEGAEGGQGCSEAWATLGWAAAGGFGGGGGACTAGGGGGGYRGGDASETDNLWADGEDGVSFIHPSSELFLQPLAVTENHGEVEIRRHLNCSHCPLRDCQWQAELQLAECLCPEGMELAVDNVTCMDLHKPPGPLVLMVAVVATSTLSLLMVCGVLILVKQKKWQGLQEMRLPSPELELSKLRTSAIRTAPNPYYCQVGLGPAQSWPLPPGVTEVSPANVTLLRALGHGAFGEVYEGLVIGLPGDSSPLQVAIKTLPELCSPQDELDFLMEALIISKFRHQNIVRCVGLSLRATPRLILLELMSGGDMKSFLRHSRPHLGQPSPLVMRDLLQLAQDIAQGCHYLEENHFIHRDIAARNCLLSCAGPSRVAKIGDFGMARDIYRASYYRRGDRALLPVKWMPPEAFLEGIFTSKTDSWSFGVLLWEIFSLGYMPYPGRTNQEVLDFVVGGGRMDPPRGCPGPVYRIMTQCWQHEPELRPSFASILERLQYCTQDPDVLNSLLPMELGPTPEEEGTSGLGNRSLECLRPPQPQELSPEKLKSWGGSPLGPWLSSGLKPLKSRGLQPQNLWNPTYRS

Usually AC50 stands for the concentration at which the activity in the assay is half-maximal. Turning to `CCN(CC)CCOC(=O)c1ccc(N/C=C(/C#N)c2nc(-c3ccc4c(c3)OCO4)cs2)cc1`, the IC50 in experiment [1] was > 66.6 µM (inactive); in experiment [2] it was 1.72 µM (active); in experiment [4], 6.35 µM (active); in [5], 120 µM (active); in experiment [6], 20.7 µM (active); in experiment [7] it was 2.13 µM (active). In addition, the IC50 in [8] is 31.4 µM (active); in [9], 6.43 µM (active); in experiment [10], > 100 µM (inactive); in experiment [11], 5.07 µM (active); in [12], 56.1 µM (active). Further, in experiment [3], the AC50 was 11 µM (active). Further, the CC50 in experiment [13] is > 40 µM (active).

Turning to `CCOCCSc1nc2c(c(-c3cccs3)c1C#N)CC/C2=C/c1cccs1`, the EC50 in experiment [14] is 16.7 µM (active); in [15], 8 µM (active); in [16] it was 17.8 µM (active); in experiment [17], 6.4 µM (active).

Broadly, the Ki is a measure of affinity in units of concentration, obtained from inhibition or displacement. For the compound `CC1=CN2CC(=O)NN=C2C=C1`, the Ki in experiment [18] is 50.1 µM (active); in experiment [19], 25.1 µM (active); in experiment [20], 50.1 µM (active); in [21], 79.4 µM (active); in experiment [22], 20 µM (active); in experiment [23] it was 50.1 µM (active). The Ki is 50.1 µM (active) in [24]; 63.1 µM (active) in experiment [25]; > 79.4 µM (inactive) in experiment [26]; 31.6 µM (active) in [27]; 79.4 µM (active) in experiment [28]; 3.16 µM (active) in experiment [29]. Further, the Ki was 79.4 µM (active) in experiment [30]; 31.6 µM (active) in [31]; 79.4 µM (active) in [32]; > 50.1 µM (inactive) in experiment [33]; 31.6 µM (active) in experiment [34]; 100 µM (active) in experiment [35]. Moreover, the inhibition constant (Ki) in experiment [36] is 20 µM (active); in [37] it was > 100 µM (inactive); in experiment [38], 12.6 µM (active); in [39], > 100 µM (inactive); in experiment [40], 12.6 µM (active); in experiment [41], 63.1 µM (active). Besides, the inhibition constant Ki was 12.6 µM (active) in experiment [42]; > 100 µM (inactive) in experiment [43]; 100 µM (active) in experiment [44]; 100 µM (active) in [45]; 50.1 µM (active) in experiment [46]; 79.4 µM (active) in experiment [47]. The Ki in experiment [48] is 79.4 µM (active).
